Measured values from publication PMC4984914 (British Journal of Cancer, 2016).

Columns and labels:
Type in all cases: in vivo
[1] = Preclinical plasma level of cleavage product 12ADT-Asp after dosing; settings: monkeys; any time after dosing of mipsagargin
[2] = as above; settings: rats; any time after dosing of mipsagargin
[3] = as above; settings: mice; any time after dosing of mipsagargin

Measured: Level of cleavage product 12ADT-Asp in plasma

C/C=C(/C)C(=O)O[C@H]1C(C)=C2[C@H]([C@@H]1OC(=O)CCCCCCC)[C@@](C)(OC(C)=O)C[C@H](OC(=O)CCCCCCCCCCCNC(=O)C[C@H](N)C(=O)O)[C@@]1(O)[C@H]2OC(=O)[C@@]1(C)O [12ADT-Asp]
virtually undetectable: all assays above
